From US8466104B2, “Therapeutically active alpha MSH analogues” (AbbVie Inc., priority 2005, dated 2013)
“Also recorded” adds a separate entry of the source.

Assays:
Type in all cases: in vivo, rat
[1] = test system: neutrophil and eosinophil infiltration in BALF after LPS inhalation; test: Inhibition of neutrophil and eosinophil infiltration after LPS inhalation in rats (experimental setup 3); conditions: for number of eosinophils within the BALF / number of neutrophils within the BALF: 24 hours after LPS inhalation, 200 μg/kg bw iv bid; for effect on neutrophils within the BALF compared to a-MSH / reduction of eosinophils in the BALF / lungs: LPS inhalation
Method: Inhibition of Neutrophil and Eosinophil Infiltration after LPS Inhalation in Rats.
Male Sprague-Dawley rats (weight ˜200 g) from M&B A/S, DK-8680 Ry, Denmark, are used for all experiments. The rats are caged in standard cages type 3 and housed in a temperature- (22-24° C.) and moisture-controlled (40-70%) room with a 12 h light-dark cycle (light on from 6:00 A.M. to 6:00 P.M.). The diet is autoclaved Altromin 1324 special formulation, Produced by Altromin Denmark, Chr. Pedersen A/S, 4100 Ringsted, Denmark. Diet and water are administered ad libitum.
After acclimatization the rats are randomly allocated to the experimental groups and dosed i.v. with test compound at start of LPS-induction and once again 8 hours after LPS-induction.
Rats in groups of 3 are anaesthetized with 0.1 ml hypnorm/dormicum pr. 100 g and dosed i.v with the test compound. Immediately after dosing they are placed in the inhalation chamber where they are subjected to a nebulized LPS solution. The concentration of LPS is 1 mg/ml. Dosing time is 15 minutes. The rats are euthanized 24 hours after dosing with the test substance. At termination the rats are euthanized with CO2/O2. Then bronchoalveolar lavage is performed by installing and withdrawing 6×2.5 ml of PBS to the right lung. Lavage is done with the lungs remaining in the thorax after removing sternum and costae. The connection to the left lung is tied off during this procedure. Bronchoalveolar fluid (BALF) is centrifuged at 1000 rpm at 4° C. for 10 minutes. After removing the supernatant the cell pellet is resuspended in 0.5 ml PBS and total cell count performed. Two smears of BALF stained with May-Grüjwald Giemsa stain is made from each rat. BALF from each rat is subjected to total cell count and to differential count of leucocytes.
In addition to LPS infusion all rats are treated with bolus injections of either:
• a-MSH: 200 μg/kg/bw • a-MSH analogue: 200 μg/kg/bw
Data are presented as mean±S.E. Between group comparisons are performed by one way analysis of variance followed by Fishers Least Significant Difference test. Differences are considered significant at the 0.05 level.

[2] = test system: ischemia-induced acute renal failure in rats; test: Inhibition of renal failure induced by 40 minutes bilateral occlusion of the renal arteries in rats (experimental setup 6); conditions: for diuresis (urine flow rate): 5 day after bilateral renal ischemia (RIR), 200 μg/kg iv; for effect on post ischemic polyuria: bilateral renal ischemia
Method: Inhibition of Renal Failure Induced by 40 Minutes Bilateral Occlusion of the Renal Arteries in Rats
Barrier-bred and specific pathogen-free female Wistar rats (250 g) are obtained from Charles River, Hannover, Germany. The animals are housed in a temperature (22-24° C.) and moisture (40-70%) controlled room with a 12-hour light-dark cycle (light on from 6:00 A.M. to 6:00 P.M.). All animals are given free access to tap water and a pelleted rat diet containing approximately 140 mmol/kg of sodium, 275 mmol/kg potassium and 23% protein (Altromin catalogue no. 1310, Altromin International, Lage, Germany).
The rats, which previously have been instrumented with a chronic venous catheter, are placed in metabolic cages and after a two days acclimation period to the metabolic cages, experimental ARF is induced by occlusion of both renal arteries for […]. During surgery, the rats are anesthetized with isoflurane-nitrous oxide and placed on a heated table to maintain rectal temperature at 37° C. Both kidneys are exposed through flank incisions, mobilized by being dissected free from the perirenal fat, then a small portion of the renal artery is gently dissected from the vein. The renal arteries are occluded with a smooth surfaced vascular clip (60 g pressure; World Precision Instruments, UK) for 40 min. Total ischemia is confirmed by observing blanching of the entire kidney surface. During the period of ischemia, the wounds are closed temporarily to maintain body temperature. After the clips are removed, the kidneys are observed for additional 2-5 min. to ensure color change, indicating blood reflow. Then the wound are closed with 3-0 silk ligatures. The rats returned to the metabolic cages, and daily 24 h urine output and water intake are measured for five days. As a control group, rats are subjected to sham operations identical to the ones used for ARF rats without occlusion of the renal arteries. Sham-operated rats are monitored in parallel with rats with ARF.
The rats are subjected to one of the following i.v treatments: • Vehicle: 0.5 ml 150 mM NaCl. • a-MSH: 200 μg a-melanocyte stimulating hormone/kg b.w. in 0.5 ml 150 mM NaCl. Test compound: 200 μg test compound/kg b.w. in 0.5 ml 150 mM NaCl. Treatment is given 5 minutes prior to reperfusion of the kidney and subsequently 6 and 24 hours later. Statistics
(§1) Data are presented as mean±S.E. Within group comparisons are analysed with Student's paired t test. Between group comparisons are performed by one way analysis of variance followed by Fishers Least Significant Difference test. Differences are considered significant at the 0.05 level.

[3] = test system: cisplatin induced renal failure in rats; test: Inhibition of cisplatin induced renal failure (experimental setup 7); conditions: for effect on cisplatin induced fall in GFR / effect on cisplatin induced hypomagnesemia: rats treated with cisplatin; for Plasma Mg: rats treated with cisplatin 5.0 mg/kg ip, 200 μg/kg iv test compound
Method: Inhibition of Cisplatin Induced Renal Failure
Rats, which previously have been instrumented with a chronic venous catheter, are placed in metabolic cages and after a period of acclimation to the metabolic cages the rats are treated with an intreperitoneal cisplatin injection 5.0 mg/kg bw in 0.5 ml 150 mM NaCl or vehicle (0.5 ml 150 mM NaCl). Five days later the rats are then returned to metabolic cages, and daily 24 h urine output and water intake are measured and collected for the next five days. All rats are then anesthetized in halothan/N2O and an arterial blood sample collected in prechilled EDTA coated vials. The blood samples are collected in a prechilled test tube with 0.5 mM EDTA, pH 7.4, and 20×10^6 IU/ml aprotinin. After centrifugation at 4° C., plasma samples are transferred to pre-chilled test tubes and stored at −20° C. for later measurements of creatinine and Magnesium (Mg). In addition to this creatinine is also measured in the urine collected in the last 24 hours period prior to the blood collection. […] Measurement of creatinine in urine and plasma is performed by use of the clinical chemistry systems VITROS 950 (Ortho-Clinical Diagnostics Inc., Johnson & Johnson, NJ) and Roche Hitachi Modular (Roche Diagnostics, Mannheim, Germany).
The rats are subjected to one of the following i.v treatments: • Vehicle: 0.5 ml 150 mM NaCl • a-MSH: 200 μg o-melanocyte stimulating hormone/kg b.w. in 0.5 ml 150 mM NaCl. • Test compound: 200 μg test compound/kg b.w. in 0.5 ml 150 mM NaCl. Treatment is given 5 minutes prior to reperfusion of the kidney and subsequently 6 and 24 hours later. Statistics
as §1

## Ac-Lys-Lys-Lys-Lys-Lys-Lys-Ser-Tyr-Ser-Met-Glu-His-Phe-Arg-Trp-Gly-Lys-Pro-Val-NH2 (Ac-KKKKKKSYSMEHFRWGKPV-NH2) [a-MSH analogue #1]
[1]
  number of eosinophils within the BALF: 49.0±10.5 ×10^5cells
  effect on neutrophils within the BALF compared to a-MSH: similar
  reduction of eosinophils in the BALF / lungs: marked reduction of eosinophils
[1]; listed as SEQ ID NO:1*
  reduction of eosinophils in the BALF / lungs: significantly inhibits
[2]
  diuresis (urine flow rate): 18.8±3.6 ml/24 hours
  effect on post ischemic polyuria: complete normalization of urine flow rate
[2]; listed as SEQ ID NO: 1
  effect on post ischemic polyuria: completely normalized the diuresis
[3]
  effect on cisplatin induced fall in GFR: prevents the cisplatin induced fall in GFR
  effect on cisplatin induced hypomagnesemia: prevents cisplatin induced hypomagnesemia
  Plasma Mg: 0.84 ± 0.04 mM

## Ac-Lys-Lys-Lys-Lys-Lys-Lys-Ser-Tyr-Ser-Nle-Glu-His-(D-Phe)-Arg-Trp-Gly-Lys-Pro-Val-NH2 (KKKKKKSYSXEHFRWGKPV; N-acetyl, Nle, D-Phe, C-amide) [a-MSH analogue #2]
[1]
  number of eosinophils within the BALF: 34.0±8.6 ×10^5cells
  number of neutrophils within the BALF: 9.1±2.4 ×10^5cells
  effect on neutrophils within the BALF compared to a-MSH: much more pronounced inhibitory effects
  reduction of eosinophils in the BALF / lungs: marked reduction of eosinophils
[1]; listed as SEQ ID NO: 5*
  effect on neutrophils within the BALF compared to a-MSH: markedly inhibited neutrophil infiltration to a much higher degree
  reduction of eosinophils in the BALF / lungs: significantly inhibits
[2]
  effect on post ischemic polyuria: markedly reduces the degree of polyuria
[3]
  effect on cisplatin induced fall in GFR: prevents cisplatin induced hypomagnesemia as well as the cisplatin induced fall in GFR
  effect on cisplatin induced hypomagnesemia: prevents cisplatin induced hypomagnesemia

## Ser-Tyr-Ser-Met-Glu-His-Phe-Arg-Trp-Gly-Lys-Pro-Val [a-MSH, reference compound]
[1]
  number of eosinophils within the BALF: 26.7±4.3 ×10^5cells
  number of neutrophils within the BALF: 20.1±2.5 ×10^5cells
  reduction of eosinophils in the BALF / lungs: marked reduction of eosinophils
[2]
  diuresis (urine flow rate): 29.0±2.9 ml/24 hours
  effect on post ischemic polyuria: unable to reduce the polyuria; also recorded: unable to normalize the urine production
[3]
  Plasma Mg: 0.37 ± 0.04 mM
